# Reference: patent publication US8461085B2, “Bioherbicide from Festuca spp” (Cornell Research Foundation, Inc., priority 2005, dated 2013)
# “Also recorded” adds a separate entry of the source.
# What was measured:
# Arabidopsis = experiment: Weed and crop Petri dish bioassay, radicle length; assay type: in vivo, Arabidopsis thaliana L.
# Common Chickweed = experiment: Weed and crop Petri dish bioassay, radicle length; assay type: in vivo, Stellaria media (L.) Vill.
# Protocol: (§1) m-Tyrosine activity was bioassayed using selected weed and crop species. Growth inhibition as measured by radicle elongation was evaluated in dandelion (Taraxacum officinale Weber in […].), large crabgrass (Digitaria sanguinalis (L.) Scop.), velvetleaf (Abutilon theophrasti Medicus), black medic (Medicago lupulina L.), curly cress (Lepidium sativum L.), bamyardgrass (Echinochloa crus-galli.(L.) Beauv.), lettuce (Lactuca sativa L.), purslane (Portulaca oleracea L.), annual bluegrass (Poa annua L.), birdsfoot trefoil (Lotus corniculatus L.), broadleaf plantain (Plantago major L.), mouseear chickweed (Cerastium vulgatum L.), common chickweed (Stellaria media (L.) Vill.), white clover (Trifolium repens L.), wheat (Triticum aestivum L.), tomato (Lycopersicon esculentum var. esculentum P. Mill.), tobacco (Nicotiana tobacum L.), and sorghum sudangrass hybrid (Sorghum bicolor x Sudanese). Weeds were purchased from HerbiSeeds, England, tomato seeds were purchased from Agway (Ithaca N.Y.), and wheat, sudex and tobacco where donated by Pioneer Seeds (Johnson, Iowa). Seeds were sterilized by a water: ethanol mixture (1:1) for one minute and rinsed three times thoroughly in distilled water. […] At the end of the incubation period, radicle length was measured. […]
# crabgrass seedlings = experiment: Soil bioassay, crabgrass root growth; assay type: in vivo, Digitaria sanguinalis L.; conditions: Digitaria sanguinalis, soil media, read-out: concentration reducing root elongation by 50%
# Excerpt: Large crabgrass was also included in the first two experiments because it is a common weed in turf settings. Prior experiments have shown that m-tyrosine is a potent inhibitor of root growth of large crabgrass and lettuce (Bertin et al., “Laboratory Assessment of the Allelopathic Effects of Fine Leaf Fescues,” J. Chem. Ecol. 29:1919-1937 (2003), which is hereby incorporated by reference in its entirety). Soil and MetroMix, as described as previously, were placed in 9-cm petri dishes, and 15 lettuce or crabgrass seeds were sown on the soil surface. Each experiment was replicated three times and was repeated over time.
# [1] = Dissolution in aqueous solution; assay type: physicochemical
# [2] = system: lettuce seedlings (Lactuca sativa L.); experiment: Petri-dish bioassay, radicle elongation in lettuce seedlings; assay type: in vivo; conditions: for IC50: Lactuca sativa
# Sudex = experiment: Weed and crop Petri dish bioassay, radicle length; assay type: in vivo, Sorghum bicolor x Sudanese
# Protocol: as §1
# [3] = system: Arabidopsis thaliana seedlings; experiment: Arabidopsis root growth inhibition in growth media; assay type: in vivo; conditions: Arabidopsis thaliana; applied to the growth media; mixture of D and L m-tyrosine; read-out: concentration reducing root length of Arabidopsis by 50%
# Dandelion = experiment: Weed and crop Petri dish bioassay, radicle length; assay type: in vivo, Taraxacum officinale Weber in Weggers.
# Protocol: (§2) m-Tyrosine activity was bioassayed using selected weed and crop species. Growth inhibition as measured by radicle elongation was evaluated in dandelion (Taraxacum officinale Weber in […].), large crabgrass (Digitaria sanguinalis (L.) Scop.), velvetleaf (Abutilon theophrasti Medicus), black medic (Medicago lupulina L.), curly cress (Lepidium sativum L.), bamyardgrass (Echinochloa crus-galli.(L.) Beauv.), lettuce (Lactuca sativa L.), purslane (Portulaca oleracea L.), annual bluegrass (Poa annua L.), birdsfoot trefoil (Lotus corniculatus L.), broadleaf plantain (Plantago major L.), mouseear chickweed (Cerastium vulgatum L.), common chickweed (Stellaria media (L.) Vill.), white clover (Trifolium repens L.), wheat (Triticum aestivum L.), tomato (Lycopersicon esculentum var. esculentum P. Mill.), tobacco (Nicotiana tobacum L.), and sorghum sudangrass hybrid (Sorghum bicolor x Sudanese). Weeds were purchased from HerbiSeeds, England, tomato seeds were purchased from Agway (Ithaca N.Y.), and wheat, sudex and tobacco where donated by Pioneer Seeds (Johnson, Iowa). Seeds were sterilized by a water: ethanol mixture (1:1) for one minute and rinsed three times thoroughly in distilled water. The simple phytotoxicity bioassay utilized consisted of the evaluation of radicle length of ten sterilized seeds of each weed/crop deposited on a filter paper containing the appropriate m-tyrosine test solution in 4.5 cm Petri dishes. […] A 1000 μL aliquot of the appropriate test solution was added to individual Petri dishes lined with Whatman No. 1 filter paper. Control dishes received 1000 μL of water. After seeds were placed on moistened filter paper, Petri dishes were transferred to a controlled environment with a light regime of 45,33 photon m^-2 s^-1 and maintained at an average temperature of 25° C. for 7 days. At the end of the incubation period, radicle length was measured. Treatments were replicated three times, and the experiment for each plant species tested was repeated three times.
# [4] = system: onion (Allium cepa L.) root cells; experiment: Mitotic index of onion root tip cells; assay type: cell-based
# Protocol: Root tips were stained for light microscopy examination using the Feulgen reaction. Root tips of three mm length were treated with a mixture of absolute ethanol:glacial acetic acid for two hours. The ethanol-glacial acetic acid mixture was removed and the tips were rinsed with distilled water. […] For each m-tyrosine concentration, five individual root tips were removed and macerated in a drop of 45% acetic acid on a slide, and the mitotic stages of the onion root tip cells were observed under a light microscope. […] One thousand cells were recorded per replication, resulting in observation of a total of 3000 cells per treatment. The experiment was repeated three times.
# [5] = system: lettuce seedlings (Lactuca sativa L.); experiment: Soil bioassay, lettuce root growth; assay type: in vivo; conditions: for IC50: Lactuca sativa; for Root Length of Lettuce Seedlings: m-tyrosine at 160 μM
# Cress = experiment: Weed and crop Petri dish bioassay, radicle length; assay type: in vivo, Lepidium sativum L.
# Protocol: as §1
# Tomato = experiment: Weed and crop Petri dish bioassay, radicle length; assay type: in vivo, Lycopersicon esculentum var. esculentum P. Mill.
# Protocol: as §2
# [6] = system: fine leaf fescue seedlings cultivar Intrigue; experiment: Autotoxicity Petri dish bioassay with fine leaf fescue seeds; assay type: in vivo, Festuca rubra L. Subsp. Commutata Gaud.; conditions: 20 μM to 160 μM
# Mouseear chickweed = experiment: Weed and crop Petri dish bioassay, radicle length; assay type: in vivo, Cerastium vulgatum L.
# Protocol: as §2
structure (smiles),measurement,setting,value
"N[C@@H](Cc1cccc(O)c1)C(=O)O [m-tyrosine, 3-hydroxyphenylalanine]",I10,Arabidopsis,6 µM
same,I100,Arabidopsis,50 µM
same,IC50,"Arabidopsis; Arabidopsis thaliana, read-out: I50",15 µM
same,I10,Common Chickweed,80 µM
same,I100,Common Chickweed,320 µM
same,IC50,crabgrass seedlings,4000 µM
same,dissolution in an aqueous solution,[1],easily dissolved
same,reduction of root elongation of lettuce seedlings,[2]; 20 μM loaded on filter paper,64%
same,IC50,"[2]; lettuce seedlings at 72 h, read-out: concentration for 50% reduction of root growth",17 µM
same,IC50,"[2]; soil-less assay, read-out: I50, 50% inhibition of root growth of lettuce",~8 µM
same,root elongation of pre-germinated lettuce seeds,[2]; solutions added to pre-germinated seeds,strongly inhibited
same,I10,Sudex,50 µM
same,IC50,"Sudex; Sorghum bicolor, read-out: I50",151 µM
same,IC50,[3],2 µM
same,I10,Dandelion,10 µM
same,I100,Dandelion,160 µM
same,IC50,"Dandelion; Taraxacum officinale, read-out: I50",39 µM
same,mitotic indices in all phases of mitosis,[4]; 20 μM,significantly reduced
same,"Anaphase, total cells observed",[4]; m-tyrosine 10 (μM),1.6%
same,"Metaphase, total cells observed",[4]; m-tyrosine 10 (μM),1.4%
same,"Prophase, total cells observed",[4]; m-tyrosine 10 (μM),2.2%
same,"Telophase, total cells observed",[4]; m-tyrosine 10 (μM),2%
same,"Anaphase, total cells observed",[4]; m-tyrosine 20 (μM),1.1%
same,"Metaphase, total cells observed",[4]; m-tyrosine 20 (μM),1%
same,"Prophase, total cells observed",[4]; m-tyrosine 20 (μM),2%
same,"Telophase, total cells observed",[4]; m-tyrosine 20 (μM),1%
same,"Anaphase, total cells observed",[4]; m-tyrosine 40 (μM),0.6%
same,"Metaphase, total cells observed",[4]; m-tyrosine 40 (μM),0.4%
same,"Prophase, total cells observed",[4]; m-tyrosine 40 (μM),1%
same,"Telophase, total cells observed",[4]; m-tyrosine 40 (μM),0.2%
same,"Anaphase, total cells observed",[4]; m-tyrosine 80 (μM),0.5%
same,"Metaphase, total cells observed",[4]; m-tyrosine 80 (μM),0%
same,"Prophase, total cells observed",[4]; m-tyrosine 80 (μM),0.5%
same,"Telophase, total cells observed",[4]; m-tyrosine 80 (μM),0.2%
same,"Anaphase, total cells observed",[4]; m-tyrosine 160 (μM),0%
same,"Metaphase, total cells observed",[4]; m-tyrosine 160 (μM),0%
same,"Prophase, total cells observed",[4]; m-tyrosine 160 (μM),0.2%
same,"Telophase, total cells observed",[4]; m-tyrosine 160 (μM),0.3%
same,IC50,"[5]; in soil, read-out: I50, 50% inhibition of root growth of lettuce",~30 µM
same,IC50,"[5]; soil media, lettuce, read-out: concentration reducing root elongation by 50%",4000 µM
same,Root Length of Lettuce Seedlings,[5]; ammonium nitrate 0 mM,2.07 (0.02) cm
same,Root Length of Lettuce Seedlings,[5]; ammonium nitrate 0.125 mM,3.56 (0.07) cm
same,Root Length of Lettuce Seedlings,[5]; ammonium nitrate 0.25 mM,4.82 (0.1) cm
same,Root Length of Lettuce Seedlings,[5]; ammonium nitrate 0.5 mM,4.8 (0.09) cm
same,Root Length of Lettuce Seedlings,[5]; ammonium nitrate 1.0 mM,4.8 (0.12) cm
same,reduction of the inhibition of radicle elongation,[5]; with 1 mM NH4NO3 in comparison to m-tyrosine without soil NH4NO3,approximately 25%
same,I10,Cress,15 µM
same,IC50,"Cress; Lepidium sativum, read-out: I50",23 µM
same,I10,Tomato,35 µM
same,I100,Tomato,160 µM
same,IC50,"Tomato; Solanum lycopersicum, read-out: I50",75 µM
same,root elongation of fescue seedlings,[6],not affected; also recorded: No inhibition
same,I10,Mouseear chickweed,6 µM
same,I100,Mouseear chickweed,47 µM
same,IC50,"Mouseear chickweed; Cerastium, read-out: I50",9 µM
